Series [1] in a line: rat intestinal in situ perfusion permeability. In kind it is in vivo. The procedure: To determine the intestinal permeability of the various peptide analogs, male albino Sprague-Dawley rats, 9-10 weeks old and weighing 250-350 g were fasted for 18 hours with free access to water. The rats were anesthetized with an intramuscular injection of ketamine/xylazine/butorphanol (87 mg/kg, 6 mg/kg, and 0.2 mg/kg body weight, respectively). The abdomen was opened by a 4-5 cm midline incision and a 10 cm jejunal segment was cannulated on two ends and connected to a syringe pump that pumps the perfusing solution through the cannulated intestine at a constant rate and at a temperature of 37° C. The isolated segment was rinsed with 10 mM MES (pH 6.5) at a flow-rate of 0.5 ml/min in order to clean out any residual debris. Jejunal perfusion was subsequently performed with the same buffer containing 135 mM NaCl, 5 mM KCl and 0.01% PEG 4000 at a flow rate of 0.2 ml/min containing test compound, internal permeability reference standards (e.g., metoprolol) and ^14C-PEG 4000 as a non-absorbable marker for measuring water flux. After steady-state is reached within the perfused intestinal segment, typically 30 minutes after start of perfusion, samples were taken at 10 minute intervals for 1 hour. ^14C (PEG-4000) levels are assayed by scintillation counting and test compounds and internal permeability standard analysis by LC/MS/MS. Samples are frozen and stored at −80° C. until analysis.
The effective permeability (Peff) determined from the in situ perfusion is calculated from equation 1
[formula] where Q is the perfusion buffer flow rate, C′out is the outlet concentration of the compound that has been adjusted for water transport (equation 2) after passing through the intestinal segment, C′in is the inlet or starting concentration of the compound, R is the radius of the intestinal segment (set to 0.2 cm) and L is the length of the intestinal segment. To correct for water transport, a non-absorbed radioactive tracer, ^14C PEG-4000, is included in the perfusion buffer. The Cout/Cin ratio is corrected for water transport according to equation 2:
[formula] where Aout-A0 is equal to the radioactivity counts in the outlet sample minus background (dpm) and Ain-A0 is equal to the radioactivity counts in the inlet sample minus background (dpm).
In certain instances, in addition to perfusing the intestinal segment as described, plasma is drawn through a portal vein cannula to determine the amount of material entering the portal system during the perfusion. This additional experimental step can aid in determining the true intestinal permeability of unstable compounds. After steady state conditions are reached as described above, 0.5 ml aliquots of plasma are withdrawn from the portal vein at regular intervals throughout the experimental time frame. The plasma samples are deproteinated with acetonitrile and the sample is subjected to SPE and LC/MS analysis as described above. From the plasma concentration of compound, the mesenteric permeability can be determined by substitution into equation 3: Flux=A*Pe-mes*Ci 3) where Flux is equal to the portal blood flow (estimated at 1 ml/min in the rat)×the steady state mesenteric blood concentration of the peptide analogs, A is the absorptive area of the intestine (estimated at 12.56 cm^2 in the rat intestine), Pe-mes is the mesenteric Permeability (cm/sec), and Ci is the starting concentration of drug in the perfusate (ug/ml).

Series [2] deals with normal human citrated plasma. Briefly: activated partial thromboplastin time (APTT). In kind it is biochemical. The method, then: (§1) The influence of the various peptide formulations used in the present invention on established coagulation-based assays was determined. The activated partial thromboplastin time (APTT) is performed by mixing 0.05 ml normal human citrated plasma with 0.05 ml activated partial thromboplastin reagent purchased from Organon Teknika, Research Triangle Park, NC in the absence or presence of a peptide inhibitor. After incubation for 5 min at 37° C., the mixture is recalcified with 0.05 ml of 30 mM calcium chloride and the time to clot formation is measured in an Amelung KC4A instrument (Sigma Chemical Corp, St. Louis, Mo.) (Hasan et al. Thrombosis and Haemostasis. 82, 1182-1187 (1999)). The prothrombin time (PT) is performed by mixing 0.05 ml normal human citrated plasma with 0.05 ml Simplastin (Organon Teknika, Research Triangle Park, NC) followed by incubation for 3 min at 37° C. in the absence or presence of a peptide inhibitor. At the addition of 0.05 ml of 30 mM calcium chloride, the time to clot formation is measured in an KC4A instrument (Sigma Chemical Corp, St. Louis, Mo.) (Hasan et al. Thrombosis and Haemostasis. 82, 1182-1187 (1999)). The thrombin clotting time (TCT) is performed by adding 0.1 ml normal human citrated plasma in the absence or presence of a peptide inhibitor and 0.05 ml of a α-thrombin solution such that the final concentration of the thrombin in the entire mixture was 1 nM. Upon addition of the thrombin, the time to clot formation is measured in an KC4A instrument (Sigma Chemical Corp, St. Louis, Mo.).

In series [3] the test system is normal human citrated plasma. Briefly: prothrombin time (PT). The format is biochemical. The method, then:
as §1

The subject of series [4] is normal human citrated plasma. Put plainly: thrombin clotting time (TCT). The conditions noted are these: 1 nM thrombin. In kind it is biochemical. The method, then:
as §1

Where a SMILES comes first, the peptide text is derived from it.

`N=C(N)NCCC[C@@H](N)C(=O)N1[C@H](C(=O)N2CCC[C@H]2C(=O)NCC(=O)N[C@@H](Cc2ccccc2)C(N)=O)C[C@@H]2CCCC[C@@H]21` [rOicPGF, D-Arg-Oic-Pro-Gly-Phe, reference compound] (HELM PEPTIDE1{[dR].[O=C([C@@H]1C[C@@H]2CCCC[C@@H]2N1[*:1])[*:2]].P.G.F.[am]}$$$$V2.0): the “Permeability (in situ) (cm/sec)” value in series [1] (rat jejunal in situ perfusion) is “Degraded”. Besides, in series [1] (rat, from portal vein plasma during perfusion, read-out: Permeability (mesenteric)), the Papp turned out to be 0.451 ×10⁻⁶ cm/s.
In the case of `Cc1ccc(C[C@H](NC(=O)[C@@H](C)NC(=O)[C@@H]2CCCN2C(=O)[C@@H]2C[C@@H]3CCCC[C@@H]3N2C(=O)[C@H](N)CCCNC(=N)N)C(N)=O)cc1` [rOicPaF(p-Me), D-Arg-Oic-Pro-D-Ala-Phe(p-Me)] (HELM PEPTIDE1{[dR].[O=C([C@@H]1C[C@@H]2CCCC[C@@H]2N1[*:1])[*:2]].P.[dA].[Cc1ccc(C[C@H](N[*:1])C(=O)[*:2])cc1].[am]}$$$$V2.0), in series [2], the “peptide concentration with significant prolongation (p<0.05) of the APTT” value amounted to 1.56 µM. For the same molecule, the “peptide concentration with significant prolongation (p<0.05) of the PT” value in series [3] amounted to 1.56 µM. Also, the “peptide concentration with significant prolongation (p<0.05) of the TCT” value in series [4] stood at 0.78 µM.
